# Peptide text beside a SMILES is read from it.
# System: HN receptor (HNR; CNTF-R/WSX-1/gp130) on F11 cells
# Assay: Immunofluorescence-based binding assay (2): biotin-HN / biotin-HNG binding to F11 cells
# Parameters: species or system mouse
# Method: A) F11 cells were seeded on 96-well plates coated with poly-L-lysine (7×10^3 cells/well). An indicated amount of biotin-HN or biotin-HNG was added to the cells with or without 10 μM of unlabelled HNG or HNA, followed by a binding assay based on immunofluorescence reaction (2) (left panels). On the other hand, F11 cells were transfected with 0.5 μg of pcDNA3.1/GS-human CNTF-R, pEF1/MycHis-human WSX-1, and 1.0 μg of pCAG-human gp130. At 24 hrs after the transfection, the cells were re-seeded on 96-well plates coated with poly-L-lysine (7×10^3 cells/well). After 36 hrs the re-seeding, an indicated amount of biotin-HN or biotin-HNG was added to the cells with or without 10 μM of unlabeled HNG or HNA, followed by a binding assay based on immunofluorescence reaction (2) (right panels).
# B) F11 cells were transfected with 0.5 μg of pRNA-U1.6/Shuttle vector, pRNA-U6.1/Shuttle-WSX-1 siRNA, pRNA-U6.1/Shuttle-CNTF-R siRNA, both pRNA-U6.1/Shuttle-WSX-1 siRNA and pRNA-U6.1/Shuttle-CNTF-R siRNA (0.5 μg each), pRNA-U6.1/Shuttle-FPR2 siRNA or pRNA-U6.1/Shuttle-LIFR siRNA. The total amount of vectors was adjusted to be 1.0 μg by including a backbone vector. At 24 hrs after the transfection, an indicated amount of biotin-HNG was added with or without unlabeled HNG, followed by a binding assay based on immunofluorescence reaction (2) at 72 hrs after the transfection.
# E) F11 cells on 6-well plate (7×10^4 cells/well) were transfected with 1.0 μg of pRNA-U6.1/Shuttle vector, pRNA-U6.1/Shuttle-Bax siRNA, or both pRNA-U6.1/Shuttle-WSX-1 siRNA and pRNA-U6.1/Shuttle-CNTF-R siRNA (0.5 μg each). At 72 hrs after the transfection, the cells were added with an indicated amount of biotin-HN with or without unlabeled HN or HNA (100 μM) and subjected to an HN-binding assay based on immunofluorescence.
# F11 cells (7×10^4/well in 6-well plates) were replated into 96-well plates (7×10^3 cells/well) at 24 hrs after transfection with indicated amounts of the plasmids encoding mycHis-WSX or V5-CNTF-R, and with PCAG-human gp130 if required. At 36 hrs after transfection, the cells were added with biotin-labeled HN or HNG of indicated concentrations in the presence or the absence of HNG (S14G-HN) or HNA (C8A-HN) of indicated concentrations (Hashimoto et al., 2001 a). After 6 hrs incubation, they were fixed with 4% paraformaldehyde in PBS for 30 min. After washing with PBS, cells were stained with FITC-conjugated avidin (Molecularprobe, Eugene, Oreg., USA). Immunofluorescence intensity was measured (excitation=485 nm, emission=535 nm) with a spectrofluorometer (Wallac1420 ARVOsx Multi Label Counter). Immunohistochemical analysis was done with a laser-scanning, confocal microscope LSM (Carl Zeiss, Germany).
smiles,measurement,setting,value
"CC[C@H](C)[C@H](NC(=O)[C@H](CCC(=O)O)NC(=O)CNC(=O)[C@@H](NC(=O)[C@H](CC(C)C)NC(=O)[C@H](CC(C)C)NC(=O)[C@H](CC(C)C)NC(=O)[C@H](CC(C)C)NC(=O)[C@H](CS)NC(=O)[C@H](CO)NC(=O)[C@H](Cc1ccccc1)NC(=O)CNC(=O)[C@H](CCCNC(=N)N)NC(=O)[C@@H]1CCCN1C(=O)[C@H](C)NC(=O)[C@@H](N)CCSC)[C@@H](C)O)C(=O)N[C@@H](CC(=O)O)C(=O)N[C@@H](CC(C)C)C(=O)N1CCC[C@H]1C(=O)N[C@H](C(=O)N[C@@H](CCCCN)C(=O)N[C@@H](CCCNC(=N)N)C(=O)N[C@@H](CCCNC(=N)N)C(=O)N[C@@H](C)C(=O)O)C(C)C [HNG, S14 G-Humanin] (H-MAPRGFSCLLLLTGEIDLPVKRRA-OH; N-terminus and C-terminus assumed)",binding to F11 cells,expression of endogenous CNTF-R and WSX-1 simultaneously decreased by siRNA,almost completely inhibited
same,binding to F11 cells,expression of endogenous CNTF-R or WSX-1 decreased by siRNA,significantly decreased

# — patent US8173771B2, “Humanin receptor or humanin-like polypeptide receptor” (Keio Univeristy, priority 2005, dated 2012)
